Residue numbers refer to the chain shown, from its start. Entries after “also recorded” stand apart in the source; their conditions may differ.
Experiments:
Type in all cases: biochemical
bovine gamma crystallins = assay: Screen: H2O2 and heat mediated aggregation of bovine gamma crystallins, turbidimetry at 600 nm; conditions: 500 μM compound, H2O2 with or without added thermal stress
Method: For the initial screen, a microtiter plate assay was developed in which bovine crystallins (2 mg/ml of 50 mM K3PO4 buffer, pH 7.2 [buffer A]) were exposed to H2O2 at varying concentrations (1–50 mM) for 12 to 36 h, upon which turbidity developed (at 50 mM H2O2 concentration) in both β- and γ-crystallins (Fig. 1, A and B). […] This was determined by turbidimetry at 600 nm (Fig. 1C) and confirmed using visual assessment of solution transparency over a fine text as well as the presence of cloudy aggregates visible by dark field microscopy (Fig. 1D). The drug:protein stoichiometric ratio was about 5:1. The wavelength of 600 nm was chosen to minimize interference by colored compounds, many of which absorb below 500 nm (Fig. 1E).
Wells were filled with 90 μl calf γ-crystallin-rich protein solution (pool 4 at 2 mg/ml) followed by 0.5 to 5.0 μl of drug (all 10 mM stock solution in DMSO) as supplied by the manufacturer and 10 μl H2O2 (450 mM stock solution in water) and sealed with sticky Applied Biosystems MicroAmp Clear Adhesive films (Life Technologies). Control wells received DMSO only. […] In order to quantitate the impact of the drugs on aggregation, a fitness plot was created (Fig. 1 C) that allowed us to identify wells with enhanced/worsening versus suppressed crystallin aggregation. In addition, aggregation in each well was also visually assessed by two independent “blinded” readers for the ability to read fine print through each well by placing the plates over small font text (Fig. 1D). Both machine and visual readouts were reconciled in order to increase robustness.

Bovine γ-crystallins = assay: Thermal aggregation (72 °C) turbidity assay, bovine γ-crystallins (pool 4); conditions: for Thermal denaturation inhibitory activity in subscreen: 150 μM; for Thermal denaturation inhibitory activity in subscreen / % Suppression: 72 °C 20 min; for % Suppression: 75 μM protein, 125 μM or less inhibitor (1.7:1)
Method: Candidate compounds were rescreened using thermal denaturation upon heating at 72 °C for 20 min according to Chen et al. ([36]) in order to select for compounds with chaperone rather than antioxidant activity since a large number of the latter already exist in the cataract field ([37]).
(§1) For a review, see the study by Roskamp et al. ([38]). […] For the mechanistic studies below these two compounds together with either drug M, chosen mostly as negative control, or the entire set of six compounds were used for comparison purpose, whereby the words “drug” or “compound” are used interchangeably in the studies later.
All assays were carried out manually in CORNING #9017 Costar Assay 96-well plates. Wells were filled with 90 μl calf γ-crystallin-rich protein solution (pool 4 at 2 mg/ml) followed by 0.5 to 5.0 μl of drug (all 10 mM stock solution in DMSO) as supplied by the manufacturer and 10 μl H2O2 (450 mM stock solution in water) and sealed with sticky Applied Biosystems MicroAmp Clear Adhesive films (Life Technologies). Control wells received DMSO only. Plates were shaken for 2 min and incubated from 24 to 72 h in a culture room at 37 °C. […] A second reading was performed following a heat shock of 20 min at 72 °C as described by Chen et al. ([36]) in order to capture drugs with heat-resistant chaperone activity. In order to quantitate the impact of the drugs on aggregation, a fitness plot was created (Fig. 1 C) that allowed us to identify wells with enhanced/worsening versus suppressed crystallin aggregation. In addition, aggregation in each well was also visually assessed by two independent “blinded” readers for the ability to read fine print through each well by placing the plates over small font text (Fig. 1D). Both machine and visual readouts were reconciled in order to increase robustness.
(§2) Final DMSO concentration was 5% including in control samples. Microtiter plates were first incubated for 10 min at 72 °C and reincubated for 10 more min. Absorbance was measured at both 10 and 20 min total incubation time.

HγS_N143D = biological target: T1, HγS_N143D (Homo sapiens, UniProt P22914, N144D); assay: Thermal aggregation (72 °C, 20 min) turbidity assay, HγS_N143D; conditions: HγS_N143D; 75 μM protein, 125 μM or less inhibitor (1.7:1), 72 °C 20 min
T1 sequence (P22914 1-178 N144D): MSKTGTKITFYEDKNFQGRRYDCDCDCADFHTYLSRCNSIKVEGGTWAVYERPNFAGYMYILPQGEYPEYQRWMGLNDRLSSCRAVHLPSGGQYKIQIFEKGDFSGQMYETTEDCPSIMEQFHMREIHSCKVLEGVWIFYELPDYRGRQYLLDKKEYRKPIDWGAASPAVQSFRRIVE
Source text: as §1

HγS = biological target: T2, HγS (Homo sapiens, UniProt P22914); assay: Thermal aggregation (72 °C, 20 min) turbidity assay, HγS; conditions: HγS; 75 μM protein, 125 μM or less inhibitor (1.7:1), 72 °C 20 min
T2 sequence (P22914 1-178): T1 sequence (P22914 1-178 N144D) with D144N
Source text: as §1

HγD = biological target: T3, HγD (Homo sapiens, UniProt P07320); assay: Thermal aggregation (72 °C) turbidity assay, recombinant HγD
T3 construct: made in house; host or cells: E. coli BL21(DE3) pLysS, pET3d vector
T3 sequence (P07320 1-174): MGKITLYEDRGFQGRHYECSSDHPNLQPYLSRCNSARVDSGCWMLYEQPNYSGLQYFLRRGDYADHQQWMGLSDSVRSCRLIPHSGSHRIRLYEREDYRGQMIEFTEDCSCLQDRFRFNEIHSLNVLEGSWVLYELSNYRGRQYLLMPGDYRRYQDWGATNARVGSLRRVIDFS
Method: For refinement of the aforementioned screen, these compounds were tested at concentrations varying from 50 to 500 μM and 1.5 mg/ml concentration of recombinant HγD, human gamma S (HγS), its deamidation mutants γS_N14, γS_N76, γS_N143 and its triple mutant γSTM (Fig. 1F). In addition, other drugs and compounds that tested positive in the initial screen were also included, such as escin (E), hematein (I), citric acid (CA), docusate sodium (DS), and sennoside A (S) (Fig. S1B). […] For a review, see the study by Roskamp et al. ([38]). […] Thus, drug C and drug G emerged as the strongest antidenaturation/aggregation and potential anticataract drugs. For the mechanistic studies below these two compounds together with either drug M, chosen mostly as negative control, or the entire set of six compounds were used for comparison purpose, whereby the words “drug” or “compound” are used interchangeably in the studies later.
For end-point assays, HγD and MγS (1 mg/ml, 100 μl) in 50 mM K3PO4 buffer (pH 7.2) in set of triplicates in transparent flat bottom 96-well plates were heated at 72 °C for 20 min in the presence and absence of selected drugs at varying concentrations. Absorbance was measured at 600 nm with a SpectraMax iD5 (Molecular Devices).
HγD protein (2.5 mg/ml buffer A) was incubated at 72 °C for 20 min without or with 100 or 400 μM drug G or C in buffer A. Final DMSO concentration was 5% in all samples. […] Therefore, samples with and without 400 μM drug G were chosen for identification of drug G-induced miscleavage sites upon digestion with 25:1 protein:trypsin ratio (sequencing grade modified trypsin; Promega) in buffer A. After 4 h, samples were frozen at −80 °C until processed for determination of miscleavage sites using proteomics analysis. LC–MS/MS analysis was performed on an Orbitrap Eclipse mass spectrometer (Thermo Fisher Scientific) coupled with a Waters nanoAcquity UPLC system (Waters) in total 90 min run using a linear gradient range from 0 to 42% solvent B (0.1% formic acid in acetonitrile) versus solvent A (0.1% formic acid in water) at a flow rate of 300 nl/min. MS1 full mass spectra were acquired in the Orbitrap mass analyzer at the resolution of 120 K. MS/MS tandem mass spectra were generated in the ion trap mass analyzer by collision-induced dissociation of peptide ions at a normalized collision energy of 35%. The resulting MS/MS spectra were searched against human gamma D protein database using Mass Matrix software (MassMatrix, Inc) with the mass errors of 10 ppm and 0.8 Da for MS1 and MS/MS scans, respectively. The oxidation of methionine was set for variable modifications, and three miscleavages were allowed for the search.
as §2

WT-MγS = biological target: T4, WT-MγS (Mus musculus, UniProt O35486); assay: End-point heat-mediated turbidity assay, WT-MγS; conditions: 400 μM drug, 72 °C, protein above 0.5 mg/ml
T4 construct: made in house; host or cells: E. coli BL21(DE3) pLysS, pET17b vector
T4 sequence (O35486 1-178): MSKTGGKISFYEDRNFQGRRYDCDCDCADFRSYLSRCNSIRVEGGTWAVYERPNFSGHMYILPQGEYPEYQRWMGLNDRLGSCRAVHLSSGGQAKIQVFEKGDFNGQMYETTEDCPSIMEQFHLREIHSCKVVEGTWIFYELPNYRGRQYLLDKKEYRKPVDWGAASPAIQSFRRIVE
Method: For end-point assays, HγD and MγS (1 mg/ml, 100 μl) in 50 mM K3PO4 buffer (pH 7.2) in set of triplicates in transparent flat bottom 96-well plates were heated at 72 °C for 20 min in the presence and absence of selected drugs at varying concentrations. Absorbance was measured at 600 nm with a SpectraMax iD5 (Molecular Devices). […]
as §2

Compound | Outcome in the library screen (effect on aggregation/turbidity at 600 nm) (bovine gamma crystallins) | other results
CC1=C(CCC(=O)O)c2cc3[nH]c(cc4nc(cc5[nH]c(cc1n2)c(C)c5C(C)O)C(C)=C4C(C)O)c(C)c3CCC(=O)O (centres unmarked) [drug H, hematoporphyrin] | positive | Thermal denaturation inhibitory activity in subscreen (Bovine γ-crystallins): thermal denaturation inhibitory activity
O=c1c(O)c(-c2ccc(O)c(O)c2)oc2cc(O)cc(O)c12 [quercetin] | worsened aggregation | 
O=c1c(O)c(-c2ccc(O)cc2O)oc2cc(O)cc(O)c12 [morin] | no impact | 
CCCCCCCCCCCCCCOS(=O)(=O)[O-].[Na+] [drug T, tetradecyl sulfate sodium] |  | Thermal denaturation inhibitory activity in subscreen (Bovine γ-crystallins): thermal denaturation inhibitory activity; % Suppression (HγS_N143D): 42%; % Suppression (HγS): 40%
CC(C)=CCC[C@@H](C)[C@H]1CC[C@@]2(C)C3=C(CC[C@]12C)[C@@]1(C)CC[C@H](O)C(C)(C)[C@@H]1CC3 [lanosterol] | no impact | 
escin [drug E] | positive | 
Cc1c(C(=O)O)c(O)cc2c1C(=O)c1c(O)c(C3O[C@H](CO)[C@@H](O)[C@H](O)[C@H]3O)c(O)c(O)c1C2=O (stereo in doubt) [carmine] | no impact | 
O=C(O)CC(O)(CC(=O)O)C(=O)O [CA, citric acid] | positive | 
O=C(O)c1cc(O)c2c(c1)[C@H]([C@H]1c3cc(C(=O)O)cc(O)c3C(=O)c3c(O[C@@H]4O[C@H](CO)[C@@H](O)[C@H](O)[C@H]4O)cccc31)c1cccc(O[C@@H]3O[C@H](CO)[C@@H](O)[C@H](O)[C@H]3O)c1C2=O [drug S, sennoside A] | positive | 
O=C1C=C2CC3(O)COc4c(ccc(O)c4O)C3=C2C=C1O (centres unmarked) [drug I, hematein] | positive | 
CCCCC(CC)COC(=O)CC(C(=O)OCC(CC)CCCC)S(=O)(=O)O (centres unmarked) [drug DS, docusate sodium] | positive | 
O=C(O[C@@H]1Cc2c(O)cc(O)cc2O[C@@H]1c1cc(O)c(O)c(O)c1)c1cc(O)c(O)c(O)c1 [epigallocatechin gallate] | improved aggregation | 
hemin | positive | 
COc1ccc([C@@H]2CC(=O)c3c(O)cc(O)cc3O2)cc1O [hesperetin] | no impact | 
C=CCCCCCCCCCCCC(O)CC(O)CO (centres unmarked) [drug V, avocadene] |  | Thermal denaturation inhibitory activity in subscreen (Bovine γ-crystallins): thermal denaturation inhibitory activity; % Suppression (Bovine γ-crystallins; Bovine γ-crystallins experiment 1): 36%; % Suppression (Bovine γ-crystallins; Bovine γ-crystallins experiment 2): 53%
pool 1: purified high–molecular weight bovine α-crystallins, used as positive control |  | Inhibition of HγD aggregation by positive control (HγD; thermal aggregation): potently inhibit; Inhibition of pool 4 protein aggregation by positive control (Bovine γ-crystallins; thermal aggregation): potently inhibit
CCCCCCCCCCCCCCCCC(C(=O)O)C(O)(CC(=O)O)C(=O)O (centres unmarked) [drug A, agaric acid] |  | Effect on HγD aggregation at low protein (HγD; 400 μM drug, 72 °C): not; Effect on HγD at 2.0 mg/ml and 20 min (HγD; 400 μM drug, 72 °C, 20 min): suppressed; also recorded: protects; Effect on BGC aggregation at 2.0 mg/ml at 10 min (Bovine γ-crystallins; 400 μM drug, 72 °C, 10 min): improved BGC aggregation; also recorded: protects; Effect on MγS absorbance (WT-MγS): blocked absorbance; also recorded: protects
